Entries after “also recorded” stand apart in the source; their conditions may differ.
Columns and labels:
SW1 melanoma tumors = SW1 melanoma tumors in C3H/HeN mice fed control or L-fucose water; format: in vivo, mouse; details: for reduced tumor growth: 100 mM L-fucose in drinking water from ~150 mm^3
Experimental: To determine which immune cell populations were affected by L-fucose, another mouse melanoma model treated with control or L-fucose-supplemented water was used. First, 1.25×10^6 SW1 mouse melanoma cells were injected into the back right flanks of the mice and allowed the tumors to grow to 150 mm^3. At 150 mm^3 (14 days), 100 mM L-fucose was administered via the drinking water to half of the mice. Tumor growth was monitored (FIGS. 3A and 3B). Total and specific subpopulations of tumor-infiltrating lymphocytes were assessed by cell flow cytometric analysis (FIGS. 3C and 3D). Assessed populations included F4/80 (macrophage)-, Gr-1 (MDSCs)-, Cd11c (Dendritic cells)-, and DX5 (NK cells)-positive cells. For T-cells, we probed for CD3 (general T-cell marker) and further for CD4 and CD8 (for those T cell subpopulations). Of the CD4-positive cells, CD25 positive cells was used to elucidate the T regulatory cells. […] Both CD4 and CD8 positive T cells (CD3+ cells) increased in response to fucose. However, myeloid derived suppressor cells (MDSCs) decreased in response to dietary fucose supplementation.
Tumors of SW1 or SMI melanoma cells from C3H/HeJ or C57BL/6 mice, respectively) were digested using 1× tumor digest buffer (0.5 mg/ml. Collagenase I, 0.5 mg/ml. Collagenase IV, 0.25 mg/ml. Hyalyronidase V. 0.1 mg/ml. DNAse I in HBSS (Millipore Sigma (St. Louis, MO)). Tumors were homogenized using the Miltenyi MACs dissociator. Red blood cells were lysed using ACK lysis buffer (Life Technologies, (Grand Island, NY)). Tumor homogenate cells were counted using a standard hemocytometer. (7) Flow Cytometry (a) TIL Profiling:
Single-cell suspensions from tumor and spleen tissue were stained with Live/Dead Zombie NIR (Biolegend, (San Diego, CA)) at 1:1,000 in PBS for 20 min. Cell suspensions were spun down and stained with the following antibodies: APC anti-mouse CD3 (0.5 μg/mL, BD Biosciences (San Jose, CA)), Pacific Blue anti-mouse CD4 ([…], BD Biosciences (San Jose, CA)), BV785 anti-mouse CD8 (0.5 μg/mL, BD Biosciences (San Jose, CA)), PerCP anti-mouse CD25 ([…], BD Biosciences (San Jose, CA)), FITC anti-mouse F4/80 (0.5 μg/mL, BD Biosciences (San Jose, CA)), PeCy7 anti-mouse CD11c (0.5 μg/mL, BD Biosciences (San Jose, CA)), PE anti-mouse NK1.1 (0.5 μg/mL, BD Biosciences (San Jose, CA)), PE anti-mouse DX5 (0.5 μg/mL, BD Biosciences (San Jose, CA)), PerCP-Cy5.5 anti-mouse CD11b (0.5 μg/mL, BD Biosciences (San Jose, CA)). After staining, the cells were washed and fixed (2% formaldehyde), followed by another wash and flow cytometric analysis. The compensation controls were prepared using 0.5 μg/ml. of each antibody with beads UltraComp eBeads™, (ThermoFisher Scientific (Waltham, MA)). All samples were subject to flow cytometric analysis using a LSR Flow Cytometer (BD Biosciences (San Jose, CA)). Flow cytometric data was further analyzed using FlowJo™ analysis software (BD Biosciences (San Jose, CA)). TIL profiles were determined as a measure of TIL subpopulations per gram of tumor tissues or % of total splenocytes.
FFPE mouse tumor sections were immunostained with FITC-conjugated AAL lectin (0.4 μg/mL, Vector Laboratories (Burlingame, CA)), rabbit anti-Mart-1 (0.2 μg/mL, Millipore Sigma (St. Louis, MO), and rabbit anti-S100 (0.2 μg/mL, Agilent Technologies (Santa Clara, CA)), followed by AlexaFluor 594 donkey anti-rabbit secondary antibody (0.05 μg/mL, ThermoFisher Scientific (Waltham, MA)). The slides were mounted with VECTASHIELD®+DAPI (Vector Laboratories (Burlingame, CA)). Microscopy images were acquired using a Keyence BZ-X710 microscope (Osaka, Japan), and images were measured for AAL-positive signal within MARTI-/S 100-positive regions (designated as melanoma regions of interest) using FIJI software (NIH). Statistical analysis was performed using GraphPad Prism™ (San Diego, CA).
Four-to-six-week-old female C3HeN and male C57BL6 mice were purchased from Charles Rivers Laboratories for the indicated experiments. […]

PD-L1 = experiment: Flow cytometry of cell surface PD-L1 in melanoma cells; format: cell-based, human or mouse; details: 250 μM; WM793, SW1, SM1 cells
From the text: FIGS. 22A, 22B, 22C, 22D, 22E, and 22F show reduced cell surface class II MHC during anti-PD-1 failure; L-PLA schematic and the effects of L-fucose on tumoral PD-L1 expression and peripheral human CD4^+ T cell fucosylation and IFNγ production/secretion. […] We stained for (i) HLA-DRB1 using anti-HLA-DRB1 followed by (+) oligo-conjugated PLA secondary and (ii) fucosylated glycan using biotinylated (“B”) AAL lectin followed by anti-biotin followed by (−) oligo-conjugated PLA secondary. Ligated PLA oligos were subjected to rolling circle amplification PCR (RCA PCR), giving rise to fluorescent punctae. […] Healthy human donor peripheral CD4^+ T cells were treated with DMSO (D) and 250 μM FUTi (i) or L-fuc (L-f) and subjected to (22E) IB analysis for changes in fucosylation (AAL IB) or (22F) ELISA assay to measure changes in IFNγ production/secretion. *=p-value<0.05.
Indicated cells were treated for 72 h with DMSO, 250 μM fucosyltransferase inhibitor (FUTi) (Millipore Sigma (St. Louis, MO)), or 250 μM of L-fucose (Biosynth (Oak Terrace, IL)). After 72 h, cells were stained with 0.1 μM PKH26 (Millipore Sigma (St. Louis, MO)) prior to fixation in 4% formaldehyde solution. […]

[1] = empty vector-expressing SW1 tumors
[2] = vs control diet, listed as L-fuc

Compound: C[C@H](O)[C@@H](O)[C@@H](O)[C@H](O)C=O [L-fucose]
- increase in tumor fucosylation (SW1 melanoma tumors; 100 mM L-fucose in drinking water): ~2.25 fold
- reduced tumor growth (SW1 melanoma tumors): > 65%
- reduced tumor growth (SW1 melanoma tumors; listed as L-fuc): ~50%
- increase in total TIL counts / infiltrating immune cells per gram of tumor (SW1 melanoma tumors; 100 mM L-fucose in drinking water, flow cytometry): 10-50 fold
- reduced growth of EV tumors (SW1 melanoma tumors; [1]): ~50%
- total TILs in EV tumors (SW1 melanoma tumors; [1]): doubling
- splenic lymphocyte profiles (SW1 melanoma tumors; flow cytometry): without significant changes
- additive effect of L-fuc in mFuk tumors (SW1 melanoma tumors; mFuk-expressing SW1 tumors): No additive effects
- absolute counts of each TIL subpopulation (SW1 melanoma tumors; vs control diet): increased
- intratumoral CD4+ and CD8+ T cells (SW1 melanoma tumors; vs control diet): increased; also recorded: doubled
- myeloid derived suppressor cells (MDSCs) in tumor (SW1 melanoma tumors; vs control diet): decreased
- overall immune infiltration of tumors (SW1 melanoma tumors; vs control diet): increased
- intratumoral CD4+ and CD8+ T cells (SW1 melanoma tumors; [2]): doubling
- myeloid derived suppressor cells (MDSCs) in tumor (SW1 melanoma tumors; [2]): either decreased or low
- cell surface PD-L1 (PD-L1): did not find that modulating fucosylation alters

— US12642809B2, “Fucosylation and immune modulation in cancer” (H. LEE MOFFITT CANCER CENTER AND RESEARCH INSTITUTE, INC., priority 2019, dated 2026)
